Experiments:
Format in all cases: in vivo
[1] = tested on: morningglory (Ipomoea spp.); assay: Test A pre-/postemergence plant response; conditions: for Morningglory plant response rating: visual injury, 0 to 100 scale (0 no effect, 100 complete control), approx. ten days
Summary of the method: (§1)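 Injury was scored visually after roughly ten days against untreated controls, 0 = no effect, 100 = complete control. Test chemicals in a surfactant-containing non-phytotoxic solvent were sprayed either onto soil preemergence or onto one- to two-leaf, 2–10 cm plants postemergence.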

[2] = tested on: pigweed (Amaranthus retroflexus); assay: Test A pre-/postemergence plant response; conditions: for Pigweed plant response rating: visual injury, 0 to 100 scale (0 no effect, 100 complete control), approx. ten days
Summary of the method: as §1

[3] = tested on: wheat (Triticum aestivum); assay: Test B pre-/postemergence plant response
Summary of the method: (§2)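 Response scores were assigned visually after 13 to 15 days in a greenhouse, comparing treated pots with controls on a 0–100 scale where 100 denotes complete control. Preemergence treatments went onto freshly seeded loam/sand soil; postemergence treatments onto plants 2 to 18 cm tall.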

[4] = tested on: johnsongrass (Sorghum halepense); assay: Test B pre-/postemergence plant response
Summary of the method: as §2

[5] = tested on: goosegrass (Eleusine indica); assay: Test B pre-/postemergence plant response
Summary of the method: as §2

[6] = tested on: woolly cupgrass (Eriochloa villosa); assay: Test B pre-/postemergence plant response
Summary of the method: as §2

[7] = tested on: morningglory (Ipomoea coccinea); assay: Test B pre-/postemergence plant response
Summary of the method: as §2

[8] = tested on: giant foxtail (Setaria faberii); assay: Test B pre-/postemergence plant response
Summary of the method: as §2

[9] = tested on: umbrella sedge (Cyperus difformis); assay: Test B flooded paddy test; conditions: for Plant response rating, Flood, Sedge, Umbrella: 250 g ai/ha, flooded paddy test, visual rating on 0 to 100 scale (0 no effect, 100 complete control) after 13 to 15 days; for Plant response rating, Sedge, Umbrella: Flood (flooded paddy test), 13 to 15 days; for Sedge, Umbrella plant response rating: Flood, 31 g ai/ha, scale 0 to 100 (0 no effect, 100 complete control)
Summary of the method: (§3)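 Visual scores run from 0 (no effect) to 100 (complete control), assigned by comparison with controls 13 to 15 days after treatment. Test compounds went straight into water standing 3 cm above the soil, around plants at the 2-leaf stage kept in a greenhouse.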

rice (Oryza sativa) = assay: Test B flooded paddy test; conditions: for Plant response rating, Flood, Rice: 250 g ai/ha, flooded paddy test, visual rating on 0 to 100 scale (0 no effect, 100 complete control) after 13 to 15 days; for Plant response rating, Rice: Flood (flooded paddy test), 13 to 15 days; for Rice plant response rating: Flood, 31 g ai/ha, scale 0 to 100 (0 no effect, 100 complete control)
Summary of the method: as §3

[10] = tested on: barnyardgrass (Echinochloa crus-galli); assay: Test B flooded paddy test; conditions: for Plant response rating, Flood, Barnyardgrass: 250 g ai/ha, flooded paddy test, visual rating on 0 to 100 scale (0 no effect, 100 complete control) after 13 to 15 days; for Plant response rating, Barnyardgrass: Flood (flooded paddy test), 13 to 15 days; for Barnyardgrass plant response rating: Flood, 31 g ai/ha, scale 0 to 100 (0 no effect, 100 complete control)
Summary of the method: as §3

[11] = tested on: ducksalad (Heteranthera limosa); assay: Test B flooded paddy test; conditions: for Plant response rating, Flood, Ducksalad: 250 g ai/ha, flooded paddy test, visual rating on 0 to 100 scale (0 no effect, 100 complete control) after 13 to 15 days; for Plant response rating, Ducksalad: Flood (flooded paddy test), 13 to 15 days; for Ducksalad plant response rating: Flood, 31 g ai/ha, scale 0 to 100 (0 no effect, 100 complete control)
Summary of the method: as §3

[12] = Postemergence, 125 g ai/ha, 0 to 100 scale where 0 is no effect and 100 is complete control
[13] = Preemergence, 125 g ai/ha, 0 to 100 scale, 0 = no effect, 100 = complete control
[14] = Preemergence, 500 g ai/ha, 0 to 100 scale, 0 = no effect, 100 = complete control
[15] = Postemergence, 31 g ai/ha, 0 to 100 scale (0 no effect, 100 complete control)
[16] = Postemergence, 250 g ai/ha, scale 0 to 100 (0 no effect, 100 complete control), 13 to 15 days
[17] = Postemergence, 62 g ai/ha, scale 0 to 100 (0 no effect, 100 complete control)
[18] = Preemergence, 31 g ai/ha, scale 0 to 100 (0 no effect, 100 complete control)
[19] = Preemergence, 62 g ai/ha, scale 0 to 100, 0 no effect, 100 complete control
[20] = Preemergence, 125 g ai/ha, scale 0 to 100, 0 no effect, 100 complete control
[21] = Preemergence, 250 g ai/ha, 0 to 100 scale
[22] = Postemergence, 125 g ai/ha, scale 0 to 100 (0 no effect, 100 complete control)
[23] = 62 g ai/ha, scale of 0 to 100 where 0 is no effect and 100 is complete control
[24] = 125 g ai/ha, scale 0 to 100, 0 is no effect, 100 is complete control

CCc1cccc(-n2c(-c3ccccc3)ncc(C(=O)C3=C(O)CCCC3=O)c2=O)c1 [Compound 220]
Plant response rating, Morningglory [1, 12]: 100
Morningglory plant response rating ([1]; Postemergence, 500 g ai/ha): 100
Plant response rating, Morningglory [1, 13]: 0
Plant response rating, Morningglory [1, 14]: 70
Plant response rating, Pigweed [2, 12]: 100
Pigweed plant response rating ([2]; Postemergence, 500 g ai/ha): 100
Plant response rating, Pigweed [2, 13]: 80
Plant response rating, Pigweed [2, 14]: 100
Plant response rating, Wheat [3, 15]: 0
Plant response rating, Wheat [3, 16]: 15
Plant response rating, Wheat [3, 17]: 0
Plant response rating, Wheat [3, 18]: 0
Plant response rating, Wheat [3, 19]: 0
Plant response rating, Wheat [3, 20]: 0
Wheat plant response rating [3, 21]: 5
Plant response rating, Johnsongrass [4, 15]: 60
Plant response rating, Johnsongrass [4, 22]: 80
Plant response rating, Johnsongrass [4, 16]: 90
Plant response rating, Johnsongrass [4, 17]: 65
Plant response rating, Johnsongrass [4, 18]: 0
Plant response rating, Johnsongrass [4, 19]: 0
Plant response rating, Johnsongrass [4, 20]: 0
Johnsongrass plant response rating [4, 21]: 80
Plant response rating, Goosegrass [5, 15]: 80
Plant response rating, Goosegrass [5, 22]: 85
Plant response rating, Goosegrass [5, 16]: 90
Plant response rating, Goosegrass [5, 17]: 85
Plant response rating, Goosegrass [5, 18]: 65
Plant response rating, Goosegrass [5, 19]: 95
Plant response rating, Goosegrass [5, 20]: 98
Goosegrass plant response rating [5, 21]: 100
Plant response rating, Cupgrass, Woolly [6, 15]: 60
Plant response rating, Cupgrass, Woolly [6, 22]: 65
Plant response rating, Cupgrass, Woolly [6, 16]: 65
Plant response rating, Cupgrass, Woolly [6, 17]: 60
Plant response rating, Cupgrass, Woolly [6, 18]: 0
Plant response rating, Cupgrass, Woolly [6, 19]: 0
Plant response rating, Cupgrass, Woolly [6, 20]: 10
Cupgrass, Woolly plant response rating [6, 21]: 25
Plant response rating, Morningglory [7, 15]: 65
Plant response rating, Morningglory [7, 22]: 98
Plant response rating, Morningglory [7, 16]: 100
Plant response rating, Morningglory [7, 17]: 65
Plant response rating, Morningglory [7, 18]: 0
Plant response rating, Morningglory [7, 19]: 0
Plant response rating, Morningglory [7, 20]: 0
Morningglory plant response rating [7, 21]: 90
Plant response rating, Foxtail, Giant [8, 15]: 30
Plant response rating, Foxtail, Giant [8, 22]: 55
Plant response rating, Foxtail, Giant [8, 16]: 95
Plant response rating, Foxtail, Giant [8, 17]: 50
Plant response rating, Foxtail, Giant [8, 18]: 0
Plant response rating, Foxtail, Giant [8, 19]: 0
Plant response rating, Foxtail, Giant [8, 20]: 0
Foxtail, Giant plant response rating [8, 21]: 75
Plant response rating, Flood, Sedge, Umbrella [9]: 85
Plant response rating, Sedge, Umbrella [9, 23]: 0
Plant response rating, Sedge, Umbrella [9, 24]: 20
Sedge, Umbrella plant response rating [9]: 0
Plant response rating, Flood, Rice (rice (Oryza sativa)): 70
Plant response rating, Rice (rice (Oryza sativa); [23]): 15
Plant response rating, Rice (rice (Oryza sativa); [24]): 50
Rice plant response rating (rice (Oryza sativa)): 0
Plant response rating, Flood, Barnyardgrass [10]: 40
Plant response rating, Barnyardgrass [10, 23]: 0
Plant response rating, Barnyardgrass [10, 24]: 30
Barnyardgrass plant response rating [10]: 0
Plant response rating, Flood, Ducksalad [11]: 100
Plant response rating, Ducksalad [11, 23]: 40
Plant response rating, Ducksalad [11, 24]: 85
Ducksalad plant response rating [11]: 30

CCCn1c(-c2ccccc2)ncc(C(=O)C2=C(O)C3CCC(C3)C2=O)c1=O (stereo not shown) [Compound 226]
Plant response rating, Morningglory [1, 12]: 100
Morningglory plant response rating ([1]; Postemergence, 500 g ai/ha): 100
Plant response rating, Morningglory [1, 13]: 60
Plant response rating, Morningglory [1, 14]: 80
Plant response rating, Pigweed [2, 12]: 100
Pigweed plant response rating ([2]; Postemergence, 500 g ai/ha): 100
Plant response rating, Pigweed [2, 13]: 100
Plant response rating, Pigweed [2, 14]: 100
Plant response rating, Wheat [3, 15]: 10
Plant response rating, Wheat [3, 16]: 30
Plant response rating, Wheat [3, 17]: 15
Plant response rating, Johnsongrass [4, 15]: 85
Plant response rating, Johnsongrass [4, 22]: 100
Plant response rating, Johnsongrass [4, 16]: 100
Plant response rating, Johnsongrass [4, 17]: 85
Plant response rating, Goosegrass [5, 15]: 80
Plant response rating, Goosegrass [5, 22]: 85
Plant response rating, Goosegrass [5, 16]: 85
Plant response rating, Goosegrass [5, 17]: 80
Plant response rating, Cupgrass, Woolly [6, 15]: 80
Plant response rating, Cupgrass, Woolly [6, 22]: 85
Plant response rating, Cupgrass, Woolly [6, 16]: 95
Plant response rating, Cupgrass, Woolly [6, 17]: 80
Plant response rating, Morningglory [7, 15]: 98
Plant response rating, Morningglory [7, 22]: 100
Plant response rating, Morningglory [7, 16]: 100
Plant response rating, Morningglory [7, 17]: 98
Plant response rating, Foxtail, Giant [8, 15]: 85
Plant response rating, Foxtail, Giant [8, 22]: 95
Plant response rating, Foxtail, Giant [8, 16]: 95
Plant response rating, Foxtail, Giant [8, 17]: 90
Plant response rating, Flood, Sedge, Umbrella [9]: 60
Plant response rating, Sedge, Umbrella [9, 23]: 40
Plant response rating, Sedge, Umbrella [9, 24]: 50
Sedge, Umbrella plant response rating [9]: 30
Plant response rating, Flood, Rice (rice (Oryza sativa)): 65
Plant response rating, Rice (rice (Oryza sativa); [23]): 40
Plant response rating, Rice (rice (Oryza sativa); [24]): 60
Rice plant response rating (rice (Oryza sativa)): 20
Plant response rating, Flood, Barnyardgrass [10]: 95
Plant response rating, Barnyardgrass [10, 23]: 60
Plant response rating, Barnyardgrass [10, 24]: 95
Barnyardgrass plant response rating [10]: 50
Plant response rating, Flood, Ducksalad [11]: 40
Plant response rating, Ducksalad [11, 23]: 0
Plant response rating, Ducksalad [11, 24]: 30
Ducksalad plant response rating [11]: 0

CCn1c(-c2cccc(F)c2)ncc(C(=O)C2=C(O)C3CCC(C3)C2=O)c1=O (stereo not shown) [Compound 236]
Plant response rating, Morningglory [1, 12]: 100
Morningglory plant response rating ([1]; Postemergence, 500 g ai/ha): 100
Plant response rating, Morningglory [1, 13]: 70
Plant response rating, Morningglory [1, 14]: 80
Plant response rating, Pigweed [2, 12]: 80
Pigweed plant response rating ([2]; Postemergence, 500 g ai/ha): 100
Plant response rating, Pigweed [2, 13]: 80
Plant response rating, Pigweed [2, 14]: 90
Plant response rating, Wheat [3, 15]: 0
Plant response rating, Wheat [3, 16]: 60
Plant response rating, Wheat [3, 17]: 10
Plant response rating, Johnsongrass [4, 15]: 0
Plant response rating, Johnsongrass [4, 22]: 20
Plant response rating, Johnsongrass [4, 16]: 55
Plant response rating, Johnsongrass [4, 17]: 15
Plant response rating, Goosegrass [5, 15]: 80
Plant response rating, Goosegrass [5, 22]: 95
Plant response rating, Goosegrass [5, 16]: 100
Plant response rating, Goosegrass [5, 17]: 90
Plant response rating, Cupgrass, Woolly [6, 15]: 70
Plant response rating, Cupgrass, Woolly [6, 22]: 95
Plant response rating, Cupgrass, Woolly [6, 17]: 85
Plant response rating, Morningglory [7, 15]: 60
Plant response rating, Morningglory [7, 22]: 95
Plant response rating, Morningglory [7, 17]: 95
Plant response rating, Foxtail, Giant [8, 15]: 75
Plant response rating, Foxtail, Giant [8, 22]: 95
Plant response rating, Foxtail, Giant [8, 16]: 98
Plant response rating, Foxtail, Giant [8, 17]: 80
Plant response rating, Flood, Sedge, Umbrella [9]: 40
Plant response rating, Sedge, Umbrella [9, 23]: 0
Plant response rating, Sedge, Umbrella [9, 24]: 0
Sedge, Umbrella plant response rating [9]: 0
Plant response rating, Flood, Rice (rice (Oryza sativa)): 0
Plant response rating, Rice (rice (Oryza sativa); [23]): 0
Plant response rating, Rice (rice (Oryza sativa); [24]): 0
Rice plant response rating (rice (Oryza sativa)): 0
Plant response rating, Flood, Barnyardgrass [10]: 20
Plant response rating, Barnyardgrass [10, 23]: 0
Plant response rating, Barnyardgrass [10, 24]: 0
Barnyardgrass plant response rating [10]: 0
Plant response rating, Flood, Ducksalad [11]: 70
Plant response rating, Ducksalad [11, 23]: 0
Plant response rating, Ducksalad [11, 24]: 60
Ducksalad plant response rating [11]: 0
